Laboratory results from patent US10149907B2, “Combinations of a photosensitizer with a hydrogen sulfide donor, thioredoxin inhibitor or nitroxide for use in photodynamic therapy” (UNIVERSITY OF EXETER, priority 2014, dated 2018).
Values joined by “and” are separate entries in the source; they are usually repeats but may differ in a detail not shown here. Equal values may be shown once. Read-outs that look alike come from different tables or passages of the source.

What was measured:
A431 cells [1] = experiment: MAL-induced PpIX accumulation, fluorescence plate reader; assay type: cell-based, human; conditions: for effect on PpIX accumulation compared to 1 mM MAL: 10, 100 and 1000 nM 5 hours + MAL 1 mM 3 hours, FIG. 21, 22
Experimental: After treatment, the cells were washed with PBS and a final 100 μl PBS was pipetted into each well for fluorescence readings. The fluorescence of PpIX was measured using a BMG Pherastar plate reader with a 410 nm excitation filter and a 630 nm emission filter.
A431 cells were treated concurrently with slow-releasing hydrogen sulfide donors (1 μM) for 5 hours and MAL (1 mM) for 3 hours, after which PpIX accumulation was measured by fluorescence plate reader (excitation 410 nm, […]). Co-treatment with CP94 (50 μM) was used as a positive control and for comparison.

A431 cells [2] = experiment: Mitochondrial reactive oxygen species generation during photodynamic irradiation, MitoSOX flow cytometry; assay type: cell-based, human
Experimental: A431 cells were treated concurrently with AP39-C10 (10, 100 or 1000 nM) for 5 hours, MAL (1 mM) for 3 hours and MitoSOX (2.5 μM) for 1 hour, after which they were irradiated for 5 min (630 nm, 25 J/cm^2) and MitoSOX (mito-2-OH-E^+) fluorescence, indicative of mitochondrial oxidant production, was immediately analysed by flow cytometry. Results are set out in FIG. 23.
Mitochondria-targeted dihydroethidium (i.e. MitoSOX) was used to assess the production of mitochondrial reactive oxygen species (ROS) by PpIX photochemical reactions and to determine the effects of AP39-C10 on this process. All of the results are represented as a percentage of the untreated controls (100.0±8.5%). The fluorescence of the photoirradiated cells, which had been pre-treated with MAL, was 193.7±7.3% (p<0.001 c.f. untreated controls).

A431 cells [3] = experiment: cells; assay type: cell-based; conditions: for increase in cell killing compared to the use of MAL alone: 10 nM; for potency compared to CP94 (50 μM) exerting a similar degree of potentiation: 10 nM vs CP94 50 μM; for modes of cell death: 1 mM MAL + SRHD 10, 100 or 1000 nM + irradiation, FIG. 19
Experimental: A431 cells (human epithelial squamous cell carcinoma cells) were seeded at a density of 1×10^6 cells/ml in T12.5 cm^2 flasks and incubated under 2% O2 for 48 h prior to treatment. After 24 h, the culture medium was replaced and the cells were placed back into the incubators under 2% O2. Following this incubation period, the culture medium was then removed and the flasks were washed with PBS. The cells were then treated with one of the SRHDs and incubated at 2% O2 for 2 h, after which MAL was added to a final concentration of 1 mM and the cells were incubated at 2% O2 for 3 h. This meant in total, the cells were treated with the SRHDs for 5 h.
Following this final incubation, cell death was analysed by annexin V-FITC and propidium iodide staining in conjunction with flow cytometry.
(§1) Cell death analysis by flow cytometry was carried out using the annexin V-FITC/propidium iodide protocol. This protocol allows a quantitative assessment of cell death, particularly specific modes of death, and involves staining the cells with fluorescein isothiocyanate-conjugated annexin A5 (annexin V-FITC) and propidium iodide (PI). Positive staining with annexin V-FITC alone indicates an apoptotic cell; positive staining with PI alone indicates a necrotic cell and dual staining of both annexin V and PI indicates a “late apoptotic” cell.
From each flask being assessed, the old medium was removed and placed into a corresponding individual 15 ml Falcon tube in order to collect any cells that may have detached from the surface. The flask was washed once with 1 ml PBS; also deposited in the Falcon tubes. Trypsin (500 μl) was added to each flask and the flasks were returned to the incubator with their caps loosened. Cell detachment was monitored using an inverted light microscope, until 50% of the cells were detached. The flasks were then lightly tapped to detach the remainder of the cells. Medium (2 ml) was added to each flask in order to neutralise the trypsin present before being removed and dispensed into the Falcon tubes. One more wash with PBS was carried out in order to ensure any cells left in the flasks were collected. The Falcon tubes were then centrifuged at 490 g for 3 min, forming a pellet at the bottom of the tube. The supernatant was discarded, and the cells were re-suspended in 5 ml of PBS, in order to wash them, before being centrifuged again at 490 g for 3 min. […] The Falcon tubes were placed on ice and in the dark for 15 min to allow annexin V staining. […] The samples were then ready to be assessed by flow cytometry.
(§2) The following flow cytometry process of sample detection was used. When using annexin V-FITC and PI, the detectors being used were FL1 (λmax=520 nm) and FL3 (λmax=670 nm), respectively, each with their own logarithmic histogram generated by the software. The intensity of the fluorescence detected is measured on a logarithmic scale on the x-axis and the y-axis represents the number of cells detected at a given fluorescence intensity. A plot of FL1/FL3 produces a 4-quadrant graph, where unstained and untreated cells are located in the bottom left quadrant, representing any cells found in the 1st decade of the single plot logarithmic histograms. Single staining with annexin V-FITC and PI are located in the bottom right and top left quadrant, respectively, and dual staining is located in the top right quadrant. These quadrants represent any cells detected above the 1st decade of the logarithmic histograms.

A431 cells [4] = conditions: for tolerance over 72 hours: 0-1000 nM
Experimental: A431 cells were seeded at a density of 1×10^5 cells/ml in 96 well plates and incubated under 2% O2 for 48 h prior to treatment. After 24 h, the culture medium was replaced and the cells were placed back into the incubators under 2% O2. Following this incubation period, the culture medium was then removed and the plates were washed with PBS. The cells were then treated with 1 mM MAL in the absence or presence of one of the compounds of interest and then incubated again at 2% O2 for 3 h. For experiments carried out with SRHDs, this treatment step was carried out for 5 h at 2% O2. After treatment, the cells were washed with PBS, the culture medium was replaced and the cells were placed back under 2% O2 for 3 h. Following this final incubation, cell death was analysed using the resazurin viability assay.
Resazurin (7-hydroxy-3H-phenoxazin-3-one 0-oxide) is a weakly fluorescent blue dye used primarily in oxidation-reduction cell viability assays. Irreversible NADH-dependent reduction by the mitochondria in mammalian cells leads to the production of resorufin, a highly fluorescent product with excitation at 571 nm, emission at 585 nm.
A431 cells were seeded into 96 well plates at a density of 1.5*10^6 cells per ml (200 μl per well, 3*10^5 cells) and incubated for 24 h to adhere. Following incubation, the cells were washed and treated with the compound of interest for the relevant time, and then washed with PBS. […] After a 2 h incubation, the fluorescence of each well was measured (excitation: 571 nm, emission: 585 nm) using a fluorescence plate reader. Data from these experiments was plotted as a percentage of cell viability compared to untreated control cells.

A431 cells [5] = experiment: MAL-induced PpIX accumulation, fluorescence plate reader; assay type: cell-based, human; conditions: 3 hours
A431 cells [6] = experiment: Photodynamic cell killing in the presence of inhibitors of the thioredoxin antioxidant system or nitroxides (annexin V-FITC/propidium iodide flow cytometry); assay type: cell-based, human
Experimental: After this treatment, the cells were irradiated for 5 min (630 nm, 25 J/cm^2), then washed with PBS and the culture medium was replaced, after which the cells were placed back under 2% O2 and incubated for a further 3 h. Following this final incubation, cell death was analysed by annexin V-FITC and propidium iodide staining in conjunction with flow cytometry.
as §1
From each flask being assessed, the old medium was removed and placed into a corresponding individual 15 ml Falcon tube in order to collect any cells that may have detached from the surface. The flask was washed once with 1 ml PBS; also deposited in the Falcon tubes. Trypsin (500 μl) was added to each flask and the flasks were returned to the incubator with their caps loosened. Cell detachment was monitored using an inverted light microscope, until 50% of the cells were detached. The flasks were then lightly tapped to detach the remainder of the cells. Medium (2 ml) was added to each flask in order to neutralise the trypsin present before being removed and dispensed into the Falcon tubes. One more wash with PBS was carried out in order to ensure any cells left in the flasks were collected. The Falcon tubes were then centrifuged at 490 g for 3 min, forming a pellet at the bottom of the tube. The supernatant was discarded, and the cells were re-suspended in 5 ml of PBS, in order to wash them, before being centrifuged again at 490 g for 3 min. The wash stage was carried out once more before re-suspending the cell pellet in 95 μl of ice cold calcium (Ca^2+) buffer (50 mM HEPES, 700 mM NaCl, 12.5 mM CaCl2, pH 7.4) and adding 5 μl 12.5 μg/ml of annexin V-FITC (final concentration, 1.25 μg/ml), under reduced light conditions to prevent bleaching of the FITC. The Falcon tubes were placed on ice and in the dark for 15 min to allow annexin V staining. After 15 min, 860 μl of Ca^2+ buffer (10 mM Hepes adjusted to pH 7.4, 140 mM NaCl and 2.5 mM CaCl2) was added, followed by 40 μl of 1 mg/ml PI in water (final concentration, 0.04 mg/ml) to give a final volume of 1 ml. The samples were then ready to be assessed by flow cytometry.
as §2

[7] = MAL 1 mM + SRHD 10 nM (5 hours), irradiated
[8] = MAL 1 mM + SRHD 100 nM (5 hours), irradiated
[9] = MAL 1 mM + SRHD 1000 nM (5 hours), irradiated
[10] = 1 mM MAL + SRHD 10 nM (5 h) + irradiation, FIG. 18
[11] = 1 mM MAL + SRHD 100 nM (5 h) + irradiation, FIG. 18
[12] = 1 mM MAL + SRHD 1 μM (5 h) + irradiation, 3 h post-irradiation
[13] = 1 mM MAL + SRHD 1000 nM (5 h) + irradiation, FIG. 18
[14] = dark toxicity, without irradiation, SRHD 1 μM, 5 h, FIG. 1, 3

NC(=S)c1ccc(OC(=O)CCCCCCCCC[P+](c2ccccc2)(c2ccccc2)c2ccccc2)cc1 [AP123-C10]
effect on PpIX accumulation compared to 1 mM MAL (A431 cells [1]): no effect on PpIX accumulation across any of the tested concentrations
MitoSOX fluorescence, percentage of untreated controls (A431 cells [2]; [7]): 237.4±8.2%
MitoSOX fluorescence, percentage of untreated controls (A431 cells [2]; [8]): 245.3±10.6%
MitoSOX fluorescence, percentage of untreated controls (A431 cells [2]; [9]): 248.1±15.1%
increase in cell killing compared to the use of MAL alone (A431 cells [3]): ~2 fold
potency compared to CP94 (50 μM) exerting a similar degree of potentiation (A431 cells [3]): 5000 fold
cell death (A431 cells [3]; [10]): 57.2±1.3%
cell death (A431 cells [3]; [11]): 56.5±2.7%
cell death (A431 cells [3]; [12]): 50.9±6.5%
cell death (A431 cells [3]; [13]): 66.7±5.6%
modes of cell death (A431 cells [3]): a further increase in apoptosis and late apoptosis, with no apparent effect on necrotic cell death
cell death (A431 cells [3]; [14]): 14.5±0.5%
tolerance over 72 hours (A431 cells [4]; 72 hours): well tolerated at each concentration tested
cell viability, percentage of untreated control (A431 cells [4]; 500 μM, 5 hours, FIG. 15, 16): 62.6±9.1%

CCc1c(O)c(O)cc[n+]1CC.[Cl-] [CP94]
effect on PpIX accumulation compared to 1 mM MAL alone (A431 cells [1]; CP94 50 μM + MAL 1 mM, positive control): significantly increased PpIX accumulation
MitoSOX fluorescence, percentage of untreated cells (A431 cells [2]; MAL 1 mM + co-treatment 50 μM, 3 hours, irradiated): 198.4±7.7%
increase in PpIX accumulation compared to MAL alone (A431 cells [5]; 50 μM + MAL 1 mM, FIG. 35): 223.2±26.1%
peak response, increase in PpIX accumulation compared to MAL alone (A431 cells [5]; peak at TEMPO 5 mM, MitoTEMPO 100 μM, CP94 100 μM, MAL 1 mM): 228.1±42.3%

COC(=O)CCC(=O)CN [MAL, methyl aminolaevulinate]
PpIX accumulation compared to untreated controls (A431 cells [1]; MAL 1 mM, 3 hours): significantly increased PpIX accumulation compared to untreated controls
MitoSOX fluorescence, percentage of untreated controls (A431 cells [2]; MAL 1 mM alone, photoirradiated): 193.7±7.3% and 220.1±8.5% and 143.3±4.8% and 207.4±16.7%
cell death (A431 cells [6]; 1 mM MAL 3 h and irradiation (630 nm, 25 J/cm2) alone, no co-treatment): 32.5±3.6% and 29.1±3.8% and 34.4±3.2% and 26.8±1.9% and 24.6±4.2%
modes of cell death (A431 cells [6]; 1 mM MAL and irradiation alone, compared to untreated controls): increase in all types of cell death
cytotoxicity at 1000 µM (A431 cells [3]; Homo sapiens, A-431, light or radiation study, 3 h, read-out: cell death, 1 mM MAL 3 h and irradiation (630 nm, 25 J/cm2) in the absence of any SRHD): 27.5 ± 5.5%

O=C(CCCCCCCCC[P+](c1ccccc1)(c1ccccc1)c1ccccc1)Oc1ccc(-c2cc(=S)ss2)cc1 [AP39-C10]
effect on PpIX accumulation compared to 1 mM MAL (A431 cells [1]): no effect on PpIX accumulation across any of the tested concentrations
MitoSOX fluorescence, percentage of untreated controls (A431 cells [2]; [7]): 207.3±10.7%
MitoSOX fluorescence, percentage of untreated controls (A431 cells [2]; [8]): 227.1±3.5%
MitoSOX fluorescence, percentage of untreated controls (A431 cells [2]; [9]): 214.3±6.4%
increase in cell killing compared to the use of MAL alone (A431 cells [3]): ~2 fold
potency compared to CP94 (50 μM) exerting a similar degree of potentiation (A431 cells [3]): 5000 fold
cell death (A431 cells [3]; [10]): 50.7±3.1%
cell death (A431 cells [3]; [11]): 53.1±2.3%
cell death (A431 cells [3]; [12]): 45.3±1.9%
cell death (A431 cells [3]; [13]): 50.2±4.9%
modes of cell death (A431 cells [3]): a further increase in apoptosis and late apoptosis, with no apparent effect on necrotic cell death
cell death (A431 cells [3]; [14]): 12.1±4.9%
tolerance over 72 hours (A431 cells [4]; 72 hours): well tolerated at each concentration tested
cell viability, percentage of untreated control (A431 cells [4]; 1000 nM, 72 hours, FIG. 17): 94.1±2.6%
cell viability, percentage of untreated control (A431 cells [4]; 500 μM, 5 hours, FIG. 15, 16): 59.3±13.3%
